# In PMC6318807 (ACS chemical neuroscience, 2018):
# Target: EP2 receptor (Homo sapiens, UniProt P43116)
# Assay: TR-FRET cAMP
# Assay type: cell-based
# EP2 receptor, sequence (P43116 whole entry): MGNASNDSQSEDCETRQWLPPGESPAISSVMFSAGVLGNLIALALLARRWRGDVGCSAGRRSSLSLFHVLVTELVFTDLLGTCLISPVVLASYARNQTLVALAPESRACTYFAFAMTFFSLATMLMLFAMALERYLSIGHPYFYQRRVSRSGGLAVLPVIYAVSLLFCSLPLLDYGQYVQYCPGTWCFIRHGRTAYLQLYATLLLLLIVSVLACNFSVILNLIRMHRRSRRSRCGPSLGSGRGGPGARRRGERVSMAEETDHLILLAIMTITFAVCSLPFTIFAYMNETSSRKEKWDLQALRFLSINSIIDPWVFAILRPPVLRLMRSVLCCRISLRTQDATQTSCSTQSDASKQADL
row,Compound,TR-FRET cAMP; fold leftward shift of PGE2 EC50 at 20 μM compound
1,CC(C)Sc1cc(N2CCOCC2)nc(-c2ccccc2)n1 [CID852313],2.4 fold shift of PGE2 EC50 at 20 μM
2,"FC(F)(F)c1cc(-c2ccccc2)nc(N2CCOCC2)n1 [CID891729, 4-[4-phenyl-6-(trifluoromethyl)pyrimidin-2-yl]morpholine]",2.4 fold shift of PGE2 EC50 at 20 μM
3,"CC1CCN(c2ccccc2NC(=O)c2ccc(F)cc2)CC1 [CID953673, 4-fluoro-N-(2-(4-methylpiperidin-1-yl)phenyl)benzamide]",2.5 fold shift of PGE2 EC50 at 20 μM
4,"Cc1ccccc1C(=O)Nc1ccccc1N1CCCCC1 [CID2340325, 2-methyl-N-(2-piperidin-1-ylphenyl)benzamide]",3.3 fold shift of PGE2 EC50 at 20 μM
5,"COc1ccc(-c2cc(C(F)(F)F)nc(N3CCOCC3)n2)cc1OC [CID2992168, 4-[4-(3,4-dimethoxyphenyl)-6 (trifluoromethyl)pyrimidin-2-yl]morpholine]",2.7 fold shift of PGE2 EC50 at 20 μM
6,"O=C(Nc1ccccc1N1CCCCC1)c1ccc(F)cc1 [CID890517, 4-fluoro-N-(2-piperidin-1-ylphenyl)benzamide]",4.3 fold shift of PGE2 EC50 at 20 μM
7,O=C(Nc1cccc(Cl)c1N1CCCCC1)c1ccc2c(c1)OCCO2 [CID1254488],2.5 fold shift of PGE2 EC50 at 20 μM
8,CC(C)Sc1cc(N2CCOCC2)nc(-c2ccc(Cl)cc2)n1 [CID852308],2.4 fold shift of PGE2 EC50 at 20 μM
